One assay deals with Aurora kinases. As to the kind of experiment: Kinase inhibition profile of DLT11 at 20 μM, Aurora kinases. In kind it is biochemical, human. As to conditions: 20 μM (FIG. 3). The method, then:
The kinase inhibition profile of DLT11 at 20 μM was determined using 250 protein kinases. Residual activity values were measured by testing each compound at one concentration in duplicate in each kinase assay. A radiometric protein kinase assay (33 PanQinase®Activity Assay) was used for measuring the kinase activity of 250 protein kinases. All kinase assays were performed in 96-well flashPlates™ from Perkin Elmer (Boston, Mass., USA) in a 50 μl reaction volume. The reaction cocktail was pipetted in 4 steps in the following order: • 10 μl of non-radioactive ATP solution (in H2O) • 25 μl of assay buffer/[γ-33P]-ATP mixture • 5 μl of test sample in 10% DMSO • 10 μl of enzyme/substrate mixture […]
Incorporation of ^33Pi (counting of “cpm”) was determined with a microplate scintillation counter (Microbeta, Wallac).
For each kinase, the median value of the cpm of three wells with complete reaction cocktails, but without kinase, was defined as “low control” (n=3). This value reflects unspecific binding of radioactivity to the plate in the absence of protein kinase but in the presence of the substrate. […] The residual activity (in %) for each compound well was calculated by using the following formula: Res. Activity (%)=100×[(cpm of compound−low control)/(high control−low control)]

The next assay addresses Erk2 (Rattus norvegicus, UniProt P63086). As to the kind of experiment: Kinase activity assay, Erk2. In kind it is biochemical. Particulars: 10 μM, 1% DMSO, 15 μM ATP; residual activity. The method, then: (§1) Buffer A: 10 mM MgCl2, 1 mM EGTA, 1 mM DTT, 25 mM Tris-HCl pH 7.5, 50 μg heparin/ml. Buffer C: 60 mM β-glycerophosphate, 15 mM p-nitrophenylphosphate, 25 mM Mops (pH 7.2), 5 mM EGTA, 15 mM MgCl2, 1 mM DTT, 1 mM sodium vanadate, 1 mM phenyl phosphate.
(§2) Kinase activities were assayed in Buffer A or C, at 30° C., at a final ATP concentration of 15 μM. Blank values were subtracted and activities expressed in % of the maximal activity, i.e. in the absence of inhibitors. Controls were performed with appropriate dilutions of DMSO.
Erk2 (rat, recombinant) was assayed as described for CDK1 but using the specific substrate Ets1 (amino acids 1-138) in buffer A.

A further assay has as its target T1, CDK2/cyclin A (Homo sapiens, UniProt P24941).
T1 construct: made in house
As to the kind of experiment: Kinase activity assay, CDK2A. It is filed as biochemical. As to conditions: 10 μM, 1% DMSO, 15 μM ATP; residual activity. The method, then: as §1, §2
CDK1/cyclin B (M phase starfish oocytes, native), CDK2/cyclin A, CDK2/cyclin E, CDK5/p25 and CDK7/cyclin H (human, recombinant) were prepared as previously described (Leclerc et al., 2001, J. Biol. Chem. 2001, 276, 251-260; Bach et al., 2005, J Biol Chem 280: 31208-31219). Their kinase activity was assayed in buffer C, with 1 mg histone H1/ml, in the presence of 15 μM [gamma-^33P] ATP (3,000 Ci/mmol; 10 mCi/ml) in a final volume of 30 μl. After 30 min incubation at 30° C., 25 μl aliquots of supernatant were spotted onto 2.5×3 cm pieces of Whatman P81 phosphocellulose paper, and, 20 sec later, the filters were washed five times (for at least 5 min each time) in a solution of 10 ml phosphoric acid/liter of water. The wet filters were counted in the presence of 1 ml ACS (Amersham) scintillation fluid.

Structures are written as SMILES.

Erk2, sequence (P63086 whole entry): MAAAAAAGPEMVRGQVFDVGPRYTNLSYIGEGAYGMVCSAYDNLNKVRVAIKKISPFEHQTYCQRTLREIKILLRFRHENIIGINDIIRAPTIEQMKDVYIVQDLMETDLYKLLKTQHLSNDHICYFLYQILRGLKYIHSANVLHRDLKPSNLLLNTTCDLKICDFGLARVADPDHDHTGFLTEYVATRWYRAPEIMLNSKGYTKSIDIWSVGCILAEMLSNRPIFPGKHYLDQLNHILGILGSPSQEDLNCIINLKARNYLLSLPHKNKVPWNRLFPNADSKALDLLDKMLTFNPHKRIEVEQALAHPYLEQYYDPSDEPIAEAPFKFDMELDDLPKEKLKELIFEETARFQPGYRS

As for `COc1cc(C(=O)OCCCCCCOC(=O)c2ccc(O)c(OC)c2)ccc1O` [DLT11, Hexane-1,6-diyl bis-(4-hydroxy-3-methoxybenzoate)], the “inhibition of 2 Aurora kinases” value in the assay on Aurora kinases is listed as “more than 80%”. For `COc1cc(C(=O)OCCOC(=O)c2ccc(O)c(OC)c2)ccc1O` [DLT1, Ethane-1,2-diyl bis-(4-hydroxy-3-methoxybenzoate)], at Erk2, the “% ENZYMATIC ACTIVITY, Erk2” value came out at 99%. Moreover, the “% ENZYMATIC ACTIVITY, CDK2A” value on CDK2/cyclin A is 91%.

(Values after patent US20110280940A1, “Di-Vanilloyl And Tri-Vanilloyl Derivatives For Use In Anti-Cancer Therapy” (priority 2008, published 2011).)
